Values belong to the compound of their own block, whether it stands above or below them.
Experiments:
[1] = target: T1, GHS-R (Homo sapiens, UniProt Q92847); assay: Ghrelin/GHS-R binding activity, radioligand binding using GHS-R-expressing cells (S1 Fig); conditions: n = 3, S1 Fig
T1 construct: host or cells: GHS-R-expressing cells (printed 'GSH-R-expressing cells')
Description: Supplementary file pone.0133159.s004.tif: S1 Fig Effect of atractylodin and atractylodin carboxylic acid on ghrelin/GHS-R binding activity. Radioligand binding was performed using GSH-R-expressing cells (n = 3). (TIF) Click here for additional data file.

[2] = Dose proportionality (linearity) test by power model for C max and AUC0-last; conditions: for Dose proportionality test using power model, Inference: linear when 90% CI of β included 1, CIlower ≥0.8, and CIupper ≤1.25; for Dose proportionality test using power model, β: rikkunshito 2.5, 5.0 or 7.5 g
Description: The dose proportionality was analyzed via a power model [21, 22]. […] Evaluation of linearity of the dosage-exposure relationship was conducted with Phoenix WinNonlin and SAS 9.2 (SAS Institute, Inc., Cary, NC).

[3] = Randomized crossover quantitative trial: plasma pharmacokinetics of nine ingredients after rikkunshito 2.5, 5.0 or 7.5 g; conditions: for AUC(0-t) / Cmax / Tmax / half-life: human, plasma, po; for AUC(0-t): AUC0-last; for AUC(0-t) / Cmax / half-life / t 1/2: geometric mean (95% CI); for Cmax: C max; for Tmax: Median t max (range); for Tmax / Median t max (range): median (minimum–maximum)
Description: The first trial was a nonrandomized, open-label, one-period design. The second trial was a randomized, open-label, three-arm, three-period design (Fig 1). With respect to inclusion criteria, the studies included healthy Japanese adults between 20 and 45 years of age with a body mass index between 18 and 25 who were willing and able to comply with the study requirements. Exclusion criteria for this study included a history of significant liver, heart, or vessel disease and consumption of supplements that contained any rikkunshito ingredients or any drug within 3 days to 1 week before the first dose. Other standard exclusion criteria included relevant allergies, pregnant or nursing females, and any alcohol or nicotine use. The sample size was set as more than 15 based on the Ministry of Health, Labour and Welfare’s guidelines. Subjects allocated to a screening test were randomized to one of three groups by the central allocation system (allocation ratio 1:1:1). A random sequence was generated using a computer. The safety endpoint was evaluated in all volunteers. This endpoint was defined on the basis of a physician’s judgement after examination or observation that a serious adverse event had occurred. Adverse events included death, a life-threatening event, an event requiring hospitalization for treatment or an extended stay in hospital, an event resulting in permanent or temporary disability or dysfunction, an event resulting in a congenital abnormality, or any other serious medical phenomenon. With respect to side effects, no specific conditions were defined, and all adverse events for which no causal relationship with the drug could be excluded were deemed to be side effects. In each stage during the 48-h period following rikkunshito administration, the physician monitored the patient for subjective symptoms, objective findings, swelling, body temperature (axillary), blood pressure (sitting), and pulse (sitting). The physician also conducted a hematological examination to measure the patient’s red blood cell, leucocyte and platelet counts, hemoglobin level, and hematocrit value. A biochemical examination was conducted to determine total protein, blood urea nitrogen, creatinine, uric acid, aspartate aminotransferase, alanine aminotransferase, total bilirubin, alkaline phosphatase, γ-glutamyltranspeptidase albumin, prothrombin time, total cholesterol, C-reactive protein, and potassium to identify any abnormalities in comparison with the subject’s condition prior to administration. All participants fasted for 12 h before administration and 4 h after administration of the study drug.
In the second quantitative trial, 12-mL blood samples were collected at 0 (preadministration), 0.25, 0.5, 1, 2, 3, 4, 6, 8, 10, 12, 24, and 48 h after a single oral administration of rikkunshito (Lot H05142). A total of 3 daily doses were used in this trial, i.e., the clinical dose per administration (2.5 g) as the lowest dose, the clinical daily dose (7.5 g) as the highest dose, and an intermediate dose (5.0 g), to broadly discuss the pharmacokinetic characteristics of the ingredients measured. The trial participants were hospitalized overnight on the day they ingested rikkunshito, and returned home the following day after blood samples were collected at the 24-h time point. The participants returned to the hospital to provide blood samples at 48 h. The blood was immediately centrifuged at 1700 ×g for 15 min to obtain plasma. Plasma fractions were stored at −20°C or lower until analysis.
Plasma, urine, and rikkunshito formulation samples were analyzed for rikkunshito ingredients concentrations using a liquid chromatography–mass spectrometry with tandem mass spectrometer assay (LC–MS/MS; API5000, Triple Quad 6500, or QTRAP5500; AB Sciex, Tokyo, Japan) or gas chromatography–mass spectrometry. Further information of analytical methods can be found at S1 Appendix.

[4] = system: cisplatin-induced anorexia model; conditions: cited from earlier work
[5] = Formation of ingredients derived from rikkunshito in formulation, blood, and urine (S11 Table summary); conditions: after rikkunshito administration, per ingredient in the formulation
[6] = Exploratory trial: amount of rikkunshito ingredients in urine; format: in vivo, human
Procedure, shortened: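 Subjects took single oral 7.5 g rikkunshito; urine collected pre-dose and 0–4 h and 4–8 h post-dose, stored at −80 °C or lower. Synephrine quantified by LC–MS/MS after plate cleanup with erythromycin IS; other ingredients after β-glucuronidase (2 h, 37 °C) and HLB solid-phase extraction.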

[7] = Stability of ingredients in gastric pH solution (pH 1.2, 37°C); format: physicochemical
Description: Rikkunshito gradually dissolved in acidic solution (pH 1.2) at 37°C, and the concentration of atractylodin after adding 0.25, 0.5, 1, and 2 h was measured by gas chromatography–mass spectrometry.

[8] = of the ingredient in the formulation; summary table, reference not given; cited from earlier work
[9] = system: ghrelin secretion; conditions: cited from earlier work
[10] = Exploratory trial: plasma concentration of rikkunshito ingredients after single oral rikkunshito 7.5 g; format: in vivo; conditions: 0–8 h; rikkunshito 7.5 g; untreated plasma; BQL = below the quantification limit
Procedure, shortened: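 Healthy volunteers took a single oral rikkunshito dose of 7.5 g. Heparinized forearm blood was drawn at 0, 0.5, 1, 2, 4 and 8 h, with urine pooled pre-dose, 0–4 h and 4–8 h. Analytes were quantified in plasma by LC–MS/MS with internal standards, after solid-phase extraction and, where applied, 2 h β-glucuronidase treatment at 37°C.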

[11] = Exploratory trial: ingredients in β-glucuronidase (enzyme)-treated plasma; format: in vivo, human; conditions: in vivo
Description: (§1) In the first exploratory trial, 20-mL blood samples were collected from the cutaneous vein in the subjects’ forearm via a blood sampling tube that contained heparin at 0 (preadministration), 0.5, 1, 2, 4, and 8 h after a single oral administration of rikkunshito (Lot E24652). The dose of rikkunshito used in this trial was 7.5 g/day, which is the clinical daily dose, to widely explore rikkunshito-derived ingredients that enter the blood. Along with plasma, urine samples were collected at three points: between dinner and bedtime (preadministration), between 0 and 4 h after administration, and between 4 and 8 h after administration. The blood was immediately centrifuged at 1700 ×g for 10 min to obtain plasma. Plasma and urine fractions were stored at −80°C or lower until analysis.
(§2) For quantification of 30 ingredients other than atractylodin and synephrine, 25 µL of standard solution or methanol was added to 500 µL plasma or urine samples followed by mixing. Atractylenolide III or digoxin (IS) solution (50 μL) was added to the solutions followed by mixing. For urine, 400 µL of blank plasma was added to the solutions. Ammonium acetate solution (100 mM, 100 or 400 µL) was added to the solutions followed by mixing. For enzymatic treatment, plasma and urine samples were incubated with β-glucuronidase (100 units in 100 mM ammonium acetate) for 2 h at 37°C. A solid-phase cartridge (OASIS HLB, 30 mg/1cc, Waters) was conditioned with methanol and 10 mM ammonium acetate solution, and the samples were loaded onto the cartridge. The cartridge was washed water : methanol (9:1, v/v), and 1.5 mL of methanol and 30 µL of propylene glycol were added to the cartridge to elute the analytes. The mixtures were dried at 25°C under a stream of nitrogen gas. Furthermore, 100 μL of 10 mM ammonium acetate : methanol (8:2, v/v) was added to the dried samples followed by mixing and sonication. The solutions were filtered (0.22 µm) and followed by injection into the LC–MS/MS system. […] Those analytical conditions are summarized in S2 Table and S3 Table.

[12] = Exploratory trial: ingredients in β-glucuronidase (enzyme)-treated urine; format: in vivo, human; conditions: human, in vivo
Description: as §1, §2

[13] = system: 5-HT2BR; set-up: method as in PMID 18439428; conditions: cited from earlier work
[14] = system: 5-HT2CR; set-up: method as in PMID 18439428; conditions: cited from earlier work
[15] = 2.5 g, rikkunshito 2.5 g single oral, n = 21
[16] = 5 g, rikkunshito 5.0 g single oral, n = 19
[17] = 7.5 g, rikkunshito 7.5 g single oral, n = 19
[18] = rikkunshito 7.5 g single oral, n = 19
[19] = rikkunshito 7.5 g single oral, n = 19, listed as atractylodin carboxylic acid
[20] = oral administration at a dose of 4.0 mg/kg

T1 sequence (Q92847 whole entry, species assumed): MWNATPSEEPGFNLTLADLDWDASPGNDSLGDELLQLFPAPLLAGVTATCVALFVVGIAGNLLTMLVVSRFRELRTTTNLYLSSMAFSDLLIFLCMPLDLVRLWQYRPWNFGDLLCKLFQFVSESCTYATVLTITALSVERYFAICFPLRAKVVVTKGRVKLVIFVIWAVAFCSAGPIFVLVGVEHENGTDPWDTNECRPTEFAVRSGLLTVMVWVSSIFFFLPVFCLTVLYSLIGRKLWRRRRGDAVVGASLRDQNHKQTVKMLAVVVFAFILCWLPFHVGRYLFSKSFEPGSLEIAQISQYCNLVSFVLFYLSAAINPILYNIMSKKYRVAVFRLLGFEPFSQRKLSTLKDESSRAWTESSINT

Ghrelin/GHS-R binding (ghrelin signal enhancement) activity compared with atractylodin [1]: as potent as atractylodin
Dose proportionality test using power model, Inference ([2]; AUC0-last): Linear
Dose proportionality test using power model, β ([2]; AUC0-last): 1.08
Dose proportionality test using power model, Inference ([2]; Cmax): Linear
Dose proportionality test using power model, β ([2]; Cmax): 1.05
C max of metabolite relative to unchanged form (atractylodin) ([3]; after administration of 7.5 g rikkunshito): 5.7–31.5 fold
AUC(0-t) [3, 15]: 3.91 ng·h/mL
Cmax [3, 15]: 4.45 ng/mL
Tmax [3, 15]: 15 min
half-life ([3]; 2.5 g, t 1/2, rikkunshito 2.5 g single oral, n = 21): 34.8 min
AUC(0-t) [3, 16]: 8.74 ng·h/mL
Cmax [3, 16]: 9.57 ng/mL
Tmax [3, 16]: 15 min
half-life ([3]; 5 g, t 1/2, rikkunshito 5.0 g single oral, n = 19): 38.2 min
AUC(0-t) [3, 17]: 12.7 ng·h/mL
Cmax [3, 17]: 14.3 ng/mL
t 1/2 [3, 18]: 0.663 (0.560–0.790) h
t 1/2 [3, 19]: < 10 h
Median t max (range) [3, 18]: 0.250 (0.250–0.500) h
Median t max (range) [3, 19]: ≤ 1 h
SMILES: O=C(O)/C=C/C#CC#C/C=C/c1ccco1 [Atractylodin carboxylic acid]

SMILES: COc1ccc([C@@H]2CC(=O)c3c(O)cc(O[C@@H]4O[C@H](CO[C@@H]5O[C@@H](C)[C@H](O)[C@@H](O)[C@H]5O)[C@@H](O)[C@H](O)[C@H]4O)cc3O2)cc1O [Hesperidin]
Appetite following cisplatin administration [4, 20]: improves decreased appetite
Plasma ghrelin concentration following cisplatin administration [4, 20]: inhibits a decrease in plasma ghrelin concentration
Acylated ghrelin level in blood ([4]; oral administration, cisplatin-induced anorexia model): suppressed the decrease of the acylated ghrelin level in blood in a concentration-dependent manner
Formation of ingredients: form found in Blood [5]: Conjugate metabolites of hesperetin
Formation of ingredients: form found in Urine ([5]; BQL = below the quantification limit): Hesperidin Hesperetin Conjugate metabolites of hesperetin
Amount in urine, 0–4 h ([6]; 0–4 h after single oral rikkunshito 7.5 g, mean ± S.D., n = 4): 184 ± 60.5 ng
Amount in urine, 4–8 h ([6]; 4–8 h after single oral rikkunshito 7.5 g, mean ± S.D., n = 4): 68.6 ± 47.9 ng
Amount in urine, Pre ([6]; preadministration (between dinner and bedtime), mean ± S.D., n = 4): 28.9 ± 57.8 ng
Stability in gastric pH solution, Quantitative value ([7]; rikkunshito in acidic solution (pH 1.2) at 37°C, 0.5 h): 2860 ng/mL
Stability in gastric pH solution, Quantitative value ([7]; rikkunshito in acidic solution (pH 1.2) at 37°C, 1 h): 3130 ng/mL
Stability in gastric pH solution, Quantitative value ([7]; rikkunshito in acidic solution (pH 1.2) at 37°C, 2 h): 2570 ng/mL
Metabolite by enterobacterium [8]: Hesperetin

SMILES: COc1ccc([C@@H]2CC(=O)c3c(O)cc(O)cc3O2)cc1O [Hesperetin]
Known pharmacology activities: ghrelin secretion [9]: Ghrelin secretion promoting activity [14, 15]
Plasma concentration at all time points [10]: BQL
Cmax ([11]; human): 0.799 ng/mL
concentration at 2 h ([11]; human): 0.227 ± 0.264 ng/mL
concentration at 4 h ([11]; human): 0.799 ± 0.408 ng/mL
concentration at 8 h ([11]; human): 0.307 ± 0.289 ng/mL
Plasma concentration in enzyme-treated plasma, 0 h [11]: BQL
Plasma concentration in enzyme-treated plasma, 0.5 h [11]: BQL
Plasma concentration in enzyme-treated plasma, 1 h [11]: BQL
Amount in enzyme-treated urine, 0–4 h [12]: 7130 ± 9290 ng
Amount in enzyme-treated urine, 4–8 h [12]: 56750 ± 37530 ng
Amount in enzyme-treated urine, Pre [12]: 4290 ± 7690 ng
Increase of urine concentration after β-glucuronidase treatment compared with before treatment [12]: more than 10 fold
Amount in urine, Pre ([6]; human, in vivo): 213 ± 390 ng
Amount in urine, 0–4 h ([6]; human, in vivo, po): 462 ± 418 ng
Stability in gastric pH solution, Quantitative value ([7]; 0.5 h, pH 1.2): 4.38 ng/mL
Stability in gastric pH solution, Quantitative value ([7]; 1 h, pH 1.2): 4.36 ng/mL
Stability in gastric pH solution, Quantitative value ([7]; 2 h, pH 1.2): 3.90 ng/mL
5-HT2BR inhibitory/antagonistic activity [13]: inhibit
5-HT2CR inhibitory activity [14]: inhibit

Reference: publication PMC4506051, “Pharmacokinetic Profiles of Active Ingredients and Its Metabolites Derived from Rikkunshito, a Ghrelin Enhancer, in Healthy Japanese Volunteers: A Cross-Over, Randomized Study” (PLoS ONE, 2015)
